Laboratory results taken from PMC8770581 (ChemMedChem, 2021).

What was measured:
[1] = target: T1, α-syn fibrils (Homo sapiens, UniProt P37840); assay: α-Synuclein fibril/ligand saturation binding assay; conditions: for Selectivity α-syn v/s Aβ: from Kd Aβ and Kd α-syn
[2] = target: Aβ (1–40) fibrils (Homo sapiens, UniProt P05067); assay: Aβ fibril/ligand saturation binding assay
[3] = Absorption/emission maxima and fluorescence quantum yield of free ligand in PBS; format: physicochemical; conditions: for Absmax / Emmax: free ligand in PBS
[4] = target: T1, α-syn fibrils; assay: Fluorescent properties of ligand-α-syn fibril complex; format: physicochemical
[5] = target: Aβ fibrils (Homo sapiens, UniProt P05067); assay: Fluorescent properties of ligand-Aβ fibril complex; format: physicochemical
[6] = Kd α-syn, Table 1, synthetic α-syn fibrils 2.5 μM, 1 hour, mean ± SD (n = 3)
[7] = Kd α-syn, Table 3 and text, α-syn fibrils, saturation binding, mean ± SD (n = 3)
[8] = Kd α-syn (reported as no binding), α-syn fibrils, saturation binding

Aβ fibrils, sequence (P05067 672-711): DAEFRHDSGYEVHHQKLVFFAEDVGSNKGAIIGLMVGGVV
Aβ (1–40) fibrils, sequence (P05067 672-711): as above

SMILES	Kd [1, 6]	Absmax [3]	Emmax [3]	further results
CN(C)c1ccc(/C=C/C=C2\Cc3ccccc3C2=O)cc1 [compound 9, (E)-2-((E)-3-(4-(Dimethylamino)phenyl)allylidene)-2,3-dihydro-1H-inden-1-one]	38.4 ± 1.3 nM	450	589	Kd [1, 7]: 38.4 ± 1.3 nM; Selectivity α-syn v/s Aβ [1]: 4.1 x; Kd [2]: 157 ± 5 nM; Fluorescence quantum yield Free ligand [3]: 0.0059; Absmax Ligand + α-syn [4]: 462; Emmax Ligand + α-syn [4]: 610; Fluorescence quantum yield Ligand + α-syn [4]: 0.0805; Absmax Ligand + Aβ [5]: 460; Emmax Ligand + Aβ [5]: 609; Fluorescence quantum yield Ligand + Aβ [5]: 0.1465
COc1cc(/C=C/C=C2C(=O)c3ccccc3C2=O)ccc1O [compound 20, (E)-2-(3-(4-Hydroxy-3-methoxyphenyl)allylidene)-1H-indene-1,3(2H)-dione]	44.5 ± 6.1 nM	402	572	Kd [1, 7]: 44.5 ± 6.1 nM; Selectivity α-syn v/s Aβ [1]: 3.5 x; Kd [2]: 154 ± 11.8 nM; Fluorescence quantum yield Free ligand [3]: 0.0061; Absmax Ligand + α-syn [4]: 440; Emmax Ligand + α-syn [4]: 603; Fluorescence quantum yield Ligand + α-syn [4]: 0.0482; Absmax Ligand + Aβ [5]: 438; Emmax Ligand + Aβ [5]: 598; Fluorescence quantum yield Ligand + Aβ [5]: 0.1419
O=C1C(=C/C=C/c2ccc([N+](=O)[O-])cc2)C(=O)c2ccccc21 [compound 22, (E)-2-(3-(4-Nitrophenyl)allylidene)-1H-indene-1,3(2H)-dione]	1330 ± 182 nM	336	460	
COc1cc(/C=C/C=C2\CCc3ccccc3C2=O)ccc1O [compound 23, (E)-2-((E)-3-(4-Hydroxy-3-methoxyphenyl)allylidene)-3,4-dihydronaphthalen-1(2H)-one]	85.1 ± 13.4 nM	401	549	Kd [1, 7]: 85.1 ± 13.4 nM; Selectivity α-syn v/s Aβ [1]: 1.7 x; Kd [2]: 144 ± 13 nM; Fluorescence quantum yield Free ligand [3]: 0.0051; Absmax Ligand + α-syn [4]: 447; Emmax Ligand + α-syn [4]: 587; Fluorescence quantum yield Ligand + α-syn [4]: 0.0763; Absmax Ligand + Aβ [5]: 454; Emmax Ligand + Aβ [5]: 584; Fluorescence quantum yield Ligand + Aβ [5]: 0.1890
CN(C)c1ccc(/C=C/C=C2\CCc3ccccc3C2=O)cc1 [compound 24, (E)-2-((E)-3-(4-(Dimethylamino)phenyl)allylidene)-3,4-dihydronaphthalen-1(2H)-one]	97.6 ± 5.7 nM	397	565	Kd [1, 7]: 97.6 ± 5.7 nM; Selectivity α-syn v/s Aβ [1]: 1.7 x; Kd [2]: 165 ± 7.1 nM; Fluorescence quantum yield Free ligand [3]: 0.0063; Absmax Ligand + α-syn [4]: 452; Emmax Ligand + α-syn [4]: 582; Fluorescence quantum yield Ligand + α-syn [4]: 0.0668; Absmax Ligand + Aβ [5]: 435; Emmax Ligand + Aβ [5]: 585; Fluorescence quantum yield Ligand + Aβ [5]: 0.1377
COc1cc(C=CC=C2C(=O)Oc3ccccc3C2=O)ccc1O [compound 25, 3-(3-(4-Hydroxy-3-methoxyphenyl)allylidene)chromane-2,4-dione]	116.3 ± 0.7 nM	490	621	
CN(C)c1ccc(C=CC=C2C(=O)Oc3ccccc3C2=O)cc1 [compound 26, 3-(3-(4-(Dimethylamino)phenyl)allylidene)chromane-2,4-dione]	119 ± 21.1 nM	440	657	
CN(C)c1ccc(C=CC=C2C(=O)Oc3ccc(Br)cc3C2=O)cc1 [compound 28, 6-Bromo-3-(3-(4-(dimethylamino)phenyl)allylidene)chromane-2,4-dione]	> 2000 nM	405		Kd [1, 8]: ≥ 2000 nM
O=C1/C(=C/C=C/c2ccc(-c3ccc(CO)cc3)cc2)Cc2ccc(O)cc21 [compound 31, (E)-6-Hydroxy-2-((E)-3-(4'-(hydroxymethyl)-[1,1'-biphenyl]-4-yl)allylidene)-2,3-dihydro-1H-inden-1-one]	126 ± 5 nM	368	540	
O=C(O)c1ccc(-c2ccc(/C=C/C=C3C(=O)c4ccccc4C3=O)cc2)cc1 [compound 34, (E)-4'-(3-(1,3-Dioxo-1,3-dihydro-2H-inden-2-ylidene)prop-1-en-1-yl)-[1,1'-biphenyl]-4-carboxylic acid]	1430 ± 46.8 nM	358	409	
O=C1/C(=C\c2ccc(-c3ccc(CO)cc3)s2)Cc2ccccc21 [compound 37, (Z)-2-((5-(4-(Hydroxymethyl)phenyl)thiophen-2-yl)methylene)-2,3-dihydro-1H-inden-1-one]		431	524	Kd [2]: 393 ± 64.4 nM; Fluorescence quantum yield Free ligand [3]: 0.0063; Absmax Ligand + Aβ [5]: 446; Emmax Ligand + Aβ [5]: 556; Fluorescence quantum yield Ligand + Aβ [5]: 0.1074
Nc1cccc(-c2ccc(/C=C3/Cc4ccccc4C3=O)s2)c1 [compound 38, (Z)-2-((5-(3-Aminophenyl)thiophen-2-yl)methylene)-2,3-dihydro-1H-inden-1-one]	160 ± 10 nM	408	563	
CN(C)c1ccc(-c2ccc(/C=C3/Cc4ccccc4C3=O)s2)cc1 [compound 40, (Z)-2-((5-(4-(Dimethylamino)phenyl)thiophen-2-yl)methylene)-2,3-dihydro-1H-inden-1-one]	160 ± 7.1 nM	413	597	
CN(C)c1ncc(-c2ccc(/C=C3/Cc4ccccc4C3=O)s2)cn1 [compound 41, (Z)-2-((5-(2-(Dimethylamino)pyrimidin-5-yl)thiophen-2-yl)methylene)-2,3-dihydro-1H-inden-1-one]	272 ± 29.9 nM	410	567	
CN(C)c1ncc(-c2ccc(/C=C3/Cc4ccc(O)cc4C3=O)s2)cn1 [compound 43, (Z)-2-((5-(2-(Dimethylamino)pyrimidin-5-yl)thiophen-2-yl)methylene)-6-hydroxy-2,3-dihydro-1H-inden-1-one]	236 ± 10.4 nM	386	572	
O=C1/C(=C\c2ccc(-c3ccc(CO)cc3)s2)Cc2ccc(O)cc21 [compound 44, (Z)-6-Hydroxy-2-((5-(4-(hydroxymethyl)phenyl)thiophen-2-yl)methylene)-2,3-dihydro-1H-inden-1-one]	134 ± 19.2 nM	412	545	
O=C1/C(=C\c2cc(-c3ccc(CO)cc3)cs2)Cc2ccccc21 [compound 46, (Z)-2-((4-(4-(Hydroxymethyl)phenyl)thiophen-2-yl)methylene)-2,3-dihydro-1H-inden-1-one]	153 ± 7.9 nM	368	454	
O=C1/C(=C\c2cc(-c3cccnc3)cs2)Cc2ccccc21 [compound 47, (Z)-2-((4-(Pyridin-3-yl)thiophen-2-yl)methylene)-2,3-dihydro-1H-inden-1-one]	333 ± 28.3 nM	340	404	
O=C1/C(=C\c2ccc(-c3ccc(CO)cc3)s2)CCc2ccccc21 [compound 49, (Z)-2-((5-(4-(Hydroxymethyl)phenyl)thiophen-2-yl)methylene)-3,4-dihydronaphthalen-1(2H)-one]	162 ± 13.6 nM	372	551	
COc1cc(-c2ccc(/C=C3/CCc4ccccc4C3=O)s2)ccc1O [compound 50, (Z)-2-((5-(4-Hydroxy-3-methoxyphenyl)thiophen-2-yl)methylene)-3,4-dihydronaphthalen-1(2H)-one]	111 ± 7.8 nM	417	596	
CN(C)c1ncc(-c2ccc(/C=C3/CCc4ccccc4C3=O)s2)cn1 [compound 51, (Z)-2-((5-(2-(Dimethylamino)pyrimidin-5-yl)thiophen-2-yl)methylene)-3,4-dihydronaphthalen-1(2H)-one]	107 ± 7.5 nM	442	613	
O=C1C(=CC2=C(Cl)c3ccccc3CC2)C(=O)c2ccccc21 [compound 52, 2-((1-Chloro-3,4-dihydronaphthalen-2-yl)methylene)-1H-indene-1,3(2H)-dione]	> 2000 nM	354	406	
Cc1ccc2occ(C=C3C(=O)c4ccccc4C3=O)c(=O)c2c1 [compound 53, 2-((6-Methyl-4-oxo-4H-chromen-3-yl)methylene)-1H-indene-1,3(2H)-dione]	> 2000 nM	428	471	
O=C1C(=Cc2coc3ccc(Br)cc3c2=O)C(=O)c2ccccc21 [compound 54, 2-((6-Bromo-4-oxo-4H-chromen-3-yl)methylene)-1H-indene-1,3(2H)-dione]	> 2000 nM	336	406	
O=C1C(=Cc2cc3ccccc3[nH]2)C(=O)c2ccccc21 [compound 55, 2-((1H-Indol-2-yl)methylene)-1H-indene-1,3(2H)-dione]	1180 ± 88 nM	384	519	
O=C1C(=Cc2cc(-c3ccc(Br)cc3)no2)C(=O)c2ccccc21 [compound 56, 2-((3-(4-Bromophenyl)isoxazol-5-yl)methylene)-1H-indene-1,3(2H)-dione]	> 2000 nM	321	409	Kd [1, 8]: ≥ 2000 nM
Cc1ccc2occ(/C=C3/Cc4ccc(O)cc4C3=O)c(=O)c2c1 [compound 57, (Z)-3-((6-Hydroxy-1-oxo-1,3-dihydro-2H-inden-2-ylidene)methyl)-6-methyl-4H-chromen-4-one]	656 ± 88 nM	326	388	
